Test results: patent US20260297081A1, “COMPOUNDS AND METHODS OF TREATING CANCERS” (Cullgen Inc., priority 2023, published 2026)

Assays:
[1] = system: MCF7 cells; test: Anti-proliferation (viability) of MCF7 cells (Table 7, FIG. 2B); assay type: cell-based; conditions: Homo sapiens, MCF7, MCF7 cells, 3-6 days, 10-point serial dilution; read-out: GI IC50 in MCF-7
[2] = system: Calu-1 cells; test: Anti-proliferation (viability) of NSCLC Calu-1 cells, 3 days (Table 7, FIG. 2B); assay type: cell-based; conditions: Homo sapiens, 72 h; Calu-1 cells, 3 days, 10-point serial dilution; read-out: GI IC50 in Calu-1
Method in brief: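 Viability after a 10-point dilution series of heterobifunctional compounds, with exposure of 6 days for ER+ breast T47D cells and 3 days for NSCLC Calu-1 cells.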

| IC50 [1] | IC50 [2] | Structure (SMILES) |
| --- | --- | --- |
| 50 to 100 nM | ≤ 10 nM | [2H]C([2H])([2H])Nc1ccc(C(=O)Nc2cc(C)on2)c(NC2CC(CNC(=O)CN3CCN(c4ccc(Nc5ncc6c(C)c(C(C)=O)c(=O)n(C7CCCC7)c6n5)nc4)CC3)C2)n1 (centres unmarked) [CPD-283, 2-((3-((2-(4-(6-((6-acetyl-8-cyclopentyl-5-methyl-7-oxo-7,8-dihydropyrido[2,3-d]pyrimidin-2-yl)amino)pyridin-3-yl)piperazin-1-yl)acetamido)methyl)cyclobutyl)amino)-6-((methyl-d3)amino)-N-(5-methylisoxazol-3-yl)nicotinamide] |
| > 100 nM | ≤ 10 nM | CC(=O)c1c(C)c2cnc(Nc3ccc(N4CCN(CC(=O)NC5CCC(Nc6nc(NC(C)C)ccc6C(=O)Nc6cn(C)c(C7CC7)n6)C5)CC4)cn3)nc2n(C2CCCC2)c1=O (centres unmarked) [CPD-284, 2-((3-(2-(4-(6-((6-acetyl-8-cyclopentyl-5-methyl-7-oxo-7,8-dihydropyrido[2,3-d]pyrimidin-2-yl)amino)pyridin-3-yl)piperazin-1-yl)acetamido)cyclopentyl)amino)-N-(2-cyclopropyl-1-methyl-1H-imidazol-4-yl)-6-(isopropylamino)nicotinamide] |
| > 100 nM | 10 to 50 nM | [2H]C([2H])([2H])Nc1ccc(C(=O)Nc2cn(C)c(C3CC3)n2)c(NC2CCC(NC(=O)CN3CCN(c4ccc(Nc5ncc6c(C)c(C(C)=O)c(=O)n(C7CCCC7)c6n5)nc4)CC3)C2)n1 (centres unmarked) [CPD-285, 2-((3-(2-(4-(6-((6-acetyl-8-cyclopentyl-5-methyl-7-oxo-7,8-dihydropyrido[2,3-d]pyrimidin-2-yl)amino)pyridin-3-yl)piperazin-1-yl)acetamido)cyclopentyl)amino)-N-(2-cyclopropyl-1-methyl-1H-imidazol-4-yl)-6-((methyl-d3)amino)nicotinamide] |
| > 100 nM | ≥ 50 nM | CC(=O)c1c(C)c2cnc(Nc3ccc(N4CCN(CC(=O)NC5CC6(C5)CC(Nc5cc(C)ccc5C(=O)Nc5cc(C)on5)C6)CC4)cn3)nc2n(C2CCCC2)c1=O (centres unmarked) [CPD-286, 2-((6-(2-(4-(6-((6-acetyl-8-cyclopentyl-5-methyl-7-oxo-7,8-dihydropyrido[2,3-d]pyrimidin-2-yl)amino)pyridin-3-yl)piperazin-1-yl)acetamido)spiro[3.3]heptan-2-yl)amino)-4-methyl-N-(5-methylisoxazol-3-yl)benzamide] |
| > 100 nM | ≥ 50 nM | [2H]C([2H])([2H])Nc1ccc(C(=O)Nc2cn(C)c(C3CC3)n2)c(NC2CC(NC(=O)N3CCN(c4ccc(Nc5ncc6c(C)c(C(C)=O)c(=O)n(C7CCCC7)c6n5)nc4)CC3)C2)n1 (centres unmarked) [CPD-287, 4-(6-((6-acetyl-8-cyclopentyl-5-methyl-7-oxo-7,8-dihydropyrido[2,3-d]pyrimidin-2-yl)amino)pyridin-3-yl)-N-(3-((3-((2-cyclopropyl-1-methyl-1H-imidazol-4-yl)carbamoyl)-6-((methyl-d3)amino)pyridin-2-yl)amino)cyclobutyl)piperazine-1-carboxamide] |
| > 100 nM | ≥ 50 nM | CC(=O)c1c(C)c2cnc(Nc3ccc(N4CCN(CC(=O)NC5CC(Nc6nc(NC(C)C)ccc6C(=O)Nc6cn(C)c(C7CC7)n6)C5)CC4)cn3)nc2n(C2CCCC2)c1=O (centres unmarked) [CPD-288, 2-((3-(2-(4-(6-((6-acetyl-8-cyclopentyl-5-methyl-7-oxo-7,8-dihydropyrido[2,3-d]pyrimidin-2-yl)amino)pyridin-3-yl)piperazin-1-yl)acetamido)cyclobutyl)amino)-N-(2-cyclopropyl-1-methyl-1H-imidazol-4-yl)-6-(isopropylamino)nicotinamide] |
| > 100 nM | ≥ 50 nM | CC(=O)c1c(C)c2cnc(Nc3ccc(N4CCN(C(=O)NC5CC(Nc6nc(NC(C)C)ccc6C(=O)Nc6cn(C)c(C7CC7)n6)C5)CC4)cn3)nc2n(C2CCCC2)c1=O (centres unmarked) [CPD-289, 4-(6-((6-acetyl-8-cyclopentyl-5-methyl-7-oxo-7,8-dihydropyrido[2,3-d]pyrimidin-2-yl)amino)pyridin-3-yl)-N-(3-((3-((2-cyclopropyl-1-methyl-1H-imidazol-4-yl)carbamoyl)-6-(isopropylamino)pyridin-2-yl)amino)cyclobutyl)piperazine-1-carboxamide] |
| > 100 nM | 10 to 50 nM | CC(=O)c1c(C)c2cnc(Nc3ccc(N4CC5(CN(CCC(=O)N6CCC(Nc7nc(NC(C)C)ccc7C(=O)Nc7ccc(N(C)C)nn7)CC6)C5)C4)cn3)nc2n(C2CCCC2)c1=O [CPD-454, 2-((1-(3-(6-(6-((6-acetyl-8-cyclopentyl-5-methyl-7-oxo-7,8-dihydropyrido[2,3-d]pyrimidin-2-yl)amino)pyridin-3-yl)-2,6-diazaspiro[3.3]heptan-2-yl)propanoyl)piperidin-4-yl)amino)-N-(6-(dimethylamino)pyridazin-3-yl)-6-(isopropylamino)nicotinamide] |
| < 50 nM | ≤ 10 nM | CC(=O)c1c(C)c2cnc(Nc3ccc(N4CC5(CN(CCC(=O)N6CC7(CC(Nc8nc(NC(C)C)ccc8C(=O)Nc8ccc(N(C)C)nn8)C7)C6)C5)C4)cn3)nc2n(C2CCCC2)c1=O [CPD-455, 2-((2-(3-(6-(6-((6-acetyl-8-cyclopentyl-5-methyl-7-oxo-7,8-dihydropyrido[2,3-d]pyrimidin-2-yl)amino)pyridin-3-yl)-2,6-diazaspiro[3.3]heptan-2-yl)propanoyl)-2-azaspiro[3.3]heptan-6-yl)amino)-N-(6-(dimethylamino)pyridazin-3-yl)-6-(isopropylamino)nicotinamide] |
| < 50 nM | ≤ 10 nM | CC(=O)c1c(C)c2cnc(Nc3ccc(N4CCC5(CC4)CC5C(=O)NC4CC5(C4)CC(Nc4nc(NC(C)C)ccc4C(=O)Nc4cn(C)c(C6CC6)n4)C5)cn3)nc2n(C2CCCC2)c1=O (centres unmarked) [CPD-457, 6-(6-((6-acetyl-8-cyclopentyl-5-methyl-7-oxo-7,8-dihydropyrido[2,3-d]pyrimidin-2-yl)amino)pyridin-3-yl)-N-(6-((3-((2-cyclopropyl-1-methyl-1H-imidazol-4-yl)carbamoyl)-6-(isopropylamino)pyridin-2-yl)amino)spiro[3.3]heptan-2-yl)-6-azaspiro[2.5]octane-1-carboxamide] |
| > 100 nM | ≤ 10 nM | [2H]C([2H])([2H])Nc1ccc(C(=O)Nc2ccc(N(C)C)nn2)c(NC2CC3(C2)CN(C(=O)CCN2CCN(c4ccc(Nc5ncc6c(C)c(C(C)=O)c(=O)n(C7CCCC7)c6n5)nc4)CC2(C)C)C3)n1 [CPD-458, 2-((2-(3-(4-(6-((6-acetyl-8-cyclopentyl-5-methyl-7-oxo-7,8-dihydropyrido[2,3-d]pyrimidin-2-yl)amino)pyridin-3-yl)-2,2-dimethylpiperazin-1-yl)propanoyl)-2-azaspiro[3.3]heptan-6-yl)amino)-N-(6-(dimethylamino)pyridazin-3-yl)-6-((methyl-d3)amino)nicotinamide] |
| > 100 nM | ≤ 10 nM | CC(=O)c1c(C)c2cnc(Nc3ccc(N4CCN(CCC(=O)N5CC6(CC(Nc7nc(NC(C)C)ccc7C(=O)Nc7ccc(N(C)C)nn7)C6)C5)C(C)(C)C4)cn3)nc2n(C2CCCC2)c1=O [CPD-459, 2-((2-(3-(4-(6-((6-acetyl-8-cyclopentyl-5-methyl-7-oxo-7,8-dihydropyrido[2,3-d]pyrimidin-2-yl)amino)pyridin-3-yl)-2,2-dimethylpiperazin-1-yl)propanoyl)-2-azaspiro[3.3]heptan-6-yl)amino)-N-(6-(dimethylamino)pyridazin-3-yl)-6-(isopropylamino)nicotinamide] |
| > 100 nM | ≤ 10 nM | CC(=O)c1c(C)c2cnc(Nc3ccc(N4CCC(N5CCC(C(=O)NC6CC(Nc7nc(NC(C)C)ccc7C(=O)Nc7ccc(N(C)C)nn7)C6)C5)CC4)cn3)nc2n(C2CCCC2)c1=O (centres unmarked) [CPD-460, 2-((3-(1-(1-(6-((6-acetyl-8-cyclopentyl-5-methyl-7-oxo-7,8-dihydropyrido[2,3-d]pyrimidin-2-yl)amino)pyridin-3-yl)piperidin-4-yl)pyrrolidine-3-carboxamido)cyclobutyl)amino)-N-(6-(dimethylamino)pyridazin-3-yl)-6-(isopropylamino)nicotinamide] |
| 50 to 100 nM | ≤ 10 nM | CC(=O)c1c(C)c2cnc(Nc3ccc(N4CCC(N5CCC(C(=O)NCC6CC(Nc7nc(NC(C)C)ccc7C(=O)Nc7ccc(N(C)C)nn7)C6)C5)CC4)cn3)nc2n(C2CCCC2)c1=O (centres unmarked) [CPD-461, 2-((3-((1-(1-(6-((6-acetyl-8-cyclopentyl-5-methyl-7-oxo-7,8-dihydropyrido[2,3-d]pyrimidin-2-yl)amino)pyridin-3-yl)piperidin-4-yl)pyrrolidine-3-carboxamido)methyl)cyclobutyl)amino)-N-(6-(dimethylamino)pyridazin-3-yl)-6-(isopropylamino)nicotinamide] |
| > 100 nM | 10 to 50 nM | CC(=O)c1c(C)c2cnc(Nc3ccc(N4CCC(N5CCC(C(=O)NC6CCC(Nc7nc(NC(C)C)ccc7C(=O)Nc7ccc(N(C)C)nn7)CC6)C5)CC4)cn3)nc2n(C2CCCC2)c1=O (centres unmarked) [CPD-462, 2-((4-(1-(1-(6-((6-acetyl-8-cyclopentyl-5-menthyl-7-oxo-7,8-dihydropyrido[2,3-d]pyrimidin-2-yl)amino)pyridin-3-yl)piperidin-4-yl)pyrrolidine-3-carboxamido)cyclohexyl)amino)-N-(6-(dimethylamino)pyridazin-3-yl)-6-(isopropylamino)nicotinamide] |
| < 50 nM | ≤ 10 nM | [2H]C([2H])([2H])Nc1ccc(C(=O)Nc2ccc(N(C)C)nn2)c(NC2CCN(C(=O)CN(C)C3CCN(c4ccc(Nc5ncc6c(C)c(C(C)=O)c(=O)n(C7CCCC7)c6n5)nc4)CC3)CC2)n1 [CPD-463, 2-((1-(N-(1-(6-((6-acetyl-8-cyclopentyl-5-methyl-7-oxo-7,8-dihydropyrido[2,3-d]pyrimidin-2-yl)amino)pyridin-3-yl)piperidin-4-yl)-N-methylglycyl)piperidin-4-yl)amino)-N-(6-(dimethylamino)pyridazin-3-yl)-6-((methyl-d3)amino)nicotinamide] |
